In article PMC11885506, “Evaluation of a non-animal toolbox informed by adverse outcome pathways for human inhalation safety” (Frontiers in Toxicology, 2025):
Entries after “also recorded” stand apart in the source; their conditions may differ. Read-outs that look alike come from different tables or passages of the source.

Legend:
[1] = test system: primary human nasal epithelial cells; parameters: method as in Uchenna Agu et al., 1999; conditions: ref Uchenna Agu et al., 1999, cited from earlier work
MucilAir™-HF tissues [2] = assay: Cilia beating frequency (CBF) analysis, MucilAir-HF model
Procedure: The MucilAir™-HF system (EP11MD) and ready-to-use chemically-defined, serum-free culture medium (EP04AM) were obtained from Epithelix Sàrl (Geneva, Switzerland). Tissues were handled as recommended by manufacturer’s instruction. […] After differentiation for 42 up to 81 days at the air-liquid interface (ALI) under standard culture conditions (37°C ± 1°C in a humidified atmosphere of 5% ± 1% CO2 in air), tissues were washed 3 days before first exposure and each insert was inspected for beating cilia and mucus production. This washing step (one or twice with PBS) were performed to remove accumulated mucus and cell debris to minimize the risk of interference with the toxicity tests. Over 12-day experimental period, washing steps as well as media changes was performed every 2-3 days.
For toxicity testing performed over a 12-day experimental period, tissues were daily exposed to 3 different concentrations of each test material for 30 min or 6 h (for detailed information on each material see Table 1). […] Tissues were exposed by test materials via nebulization, liquid apical application, or liquid basal application. These differences in the exposure type were due to solubility of the test material, route of exposure (inhaled or systemic), or comparison with previous publications. […]

MucilAir™-HF tissues [3] = assay: Mucin-5AC (Muc5AC) immunohistochemistry, goblet cells, MucilAir-HF model; format: cell-based, human; conditions: for % of Muc5AC area: average ± standard deviation
Procedure: (§1) Tissues were handled as recommended by manufacturer’s instruction.
The presence of goblet cells was assessed through immunohistochemistry analysis for mucin-5AC protein (Muc5AC) detection. IL-13 and cytomix were used as positive controls (see item 2.5.2 for additional details). On last day of experiment (day 12), cultures (n = 3 tissues/group) were rinsed in PBS and fixed by immersion in 4% formaldehyde for 20 min. Fixed tissues were embedded into paraffin, sectioned, and processed for staining on paraffin sections. The immunostaining of the sections was performed with the Benchmark automated platform (Ventana-Roche, Hoffmann-La Roche Ltd, Basel, Switzerland) and the Autostainer Link 48 (Agilent, Santa Clara, CA. United States) with the detection kit Ultraview DAB (DAB chromogeny, Hoffmann-La Roche Ltd). Sections were pre-treated using heat mediated antigen retrieval with sodium citrate buffer, pH 6, for 20 min. The section was then incubated with recombinant anti-mucin 5AC antibody (ab3649, Abcam) for 1 h at room temperature, followed by biotinylated secondary antibody (Dako) and HRP detection (HRP conjugated ABC system, Vector Laboratories), according to manufacturer’s instruction. The section was then counterstained with hematoxylin (Sigma-Aldrich) and mounted with DPX, a synthetic non-aqueous mounting medium for microscopy. Digital images of the slides were then acquired, and quantitative image analysis performed using Image Pro Plus 6.2 (Media Cybernetics) to quantify the goblet cells on a section. The whole images of stained sections were scanned, and an average 15 images/section were analysed. The results are the ratio between the mucin 5AC stained area and the total surface area of the epithelium on the section.

EpiAlveolar™ tissues = assay: Histology and immunohistochemistry, EpiAlveolar model, Laboratory 2; conditions: Laboratory 2, 12-day period
Procedure: To evaluate the quality of EpiAlveolar™ tissues over the 12-day experimental period, histological and immunohistochemistry assessments for detection of pan-cytokeratin, vimentin, aquaporin 5, pro-surfactant C, CD68, caspase-3, and/or αSMA were performed by Laboratories 1 and 2.
Tissues were kept in 10% phosphate buffered formalin at 4°C for up to 48 h. Samples were then fixed in 70% ethanol and two strips of membrane were trimmed from each sample, processed, and paraffin-embedded to be cut at 5 µm thick sections and mounted to glass slides. The slides were then dewaxed in xylene, hydrated using graded industrial methylated spirit (70-100%) and stained with H&E for light microscope analysis.
For immunohistochemistry analysis, tissue sections-containing microscope slides were obtained and processed using a Discovery Ultra Staining System (Roche), according to manufacturer’s instructions, except for anti-CD68 staining that was manually performed. The slides were incubated at 60°C for 8 min and then deparaffinized at 69°C for 24 min. After that, slides were incubated with inhibitor CM or peroxidase blocking solution (for anti-CD68 staining) for 8 min at room temperature. The slides were then incubated at room temperature with the following primary monoclonal antibodies, following manufacturer’s instructions: anti-α smooth muscle actin (αSMA) at 1:500 (Leica Microsystems Ltd), anti-CD68 at 1:3000 for macrophages (11192-T24, Sino Biological), anti-pro-surfactant C protein at 1:1000 (AB3786, Sigma-Aldrich), anti-caspase-3 at 1:10000 (AB4051, Abcam), anti-aquaporin 5 (31661, Invitrogen), anti-pan-cytokeratin for epithelial cells (760-2595, Roche), and anti-vimentin for mesenchymal cells (790-2917, Roche). […]
A board-certified pathologist evaluated the changes (epithelial thinning, separation/detachment areas, necrosis, collagen, and presence of apoptotic cells, myofibroblasts, and type II pneumocytes) using a semi-quantitative scoring system (Table 2).

[4] = test system: cultured alveolar macrophages and epithelial cells; parameters: method as in JOUNEAU et al., 2011; conditions: 10 µg/mL for 48h, bacteria strain not specified; ref JOUNEAU et al., 2011; cited from earlier work
MucilAir™-HF tissues [5] = assay: Cytokine and chemokine measurements (Luminex), MucilAir-HF model; format: cell-based, human; conditions: MucilAir-HF
Procedure: as §1
Basolateral medium samples of the tissue cultures were collected and stored at −80°C until analysis. The following cytokines/chemokines were quantified using customized Human Luminex® Discovery Assay kits (R&D Systems): chemokine (C-C motif) ligand (CCL) 2, CCL7, CCL26, C-X-C motif chemokine ligand (CXCL) 10, CXCL11, intercellular adhesion molecule-1 (ICAM-1), IL-1α, IL-6, IL-8, matrix metalloproteinase (MMP)-1, MMP-2, MMP-3, MMP-7, MMP-9, osteopontin, interferon (IFN)-γ, IL-1 receptor antagonist (IL-1Ra), urokinase-type plasminogen activator receptor (uPAR), tumour necrosis factor (TNF)-α, urokinase (uPA), serpin E1, tissue inhibitor of metalloproteinase 1 (TIMP-1), and TGF-β1. Samples were measured in technical triplicates according to the manufacturer’s recommendation using a Luminex Bio-Plex® 200 RUO System ([…]).

[6] = test system: primary human bronchial epithelial cells; parameters: method as in Wu et al., 2010; conditions: 1 μg/mL for 24h, bacteria strain not specified; ref Wu et al., 2010; cited from earlier work
[7] = test system: RLE-6TN rat lung epithelial cells; conditions: 0.5 µM; ref Jiao et al., 2017; cited from earlier work
[8] = test system: monocyte-derived macrophages (MDMs); conditions: 20 µM; ref Zeng et al., 2021; cited from earlier work
[9] = test system: HBE16 airway epithelial cells; conditions: 20 μM for 12h; ref Li et al., 2010; cited from earlier work
[10] = test system: EpiAirway-100 human upper respiratory tract epithelium model; conditions: 25-125 mM for 24h; ref Balharry et al., 2008; cited from earlier work
[11] = test system: A549 human lung adenocarcinoma cell line; conditions: 0.1-5 µM for 3h; ref Guo et al., 2012; cited from earlier work
[12] = test system: airway epithelial cell lines; parameters: method as in Nilsson et al., 2010; conditions: 40 µM for 60 min, corrected and normal cell lines; ref Nilsson et al., 2010; cited from earlier work
[13] = test system: cystic fibrosis phenotype cells; parameters: method as in Perez et al., 2007; conditions: 20 µM for 3-5 days; ref Perez et al., 2007; cited from earlier work
[14] = 30 min/day exposure, day 12, High 1 concentration (third of the tested concentrations)
[15] = 30 min/day exposure, day 12, Low concentration (first of the tested concentrations)
[16] = 30 min/day exposure, day 12, Medium concentration (second of the tested concentrations)
[17] = 6 h/day exposure, day 12, single tested concentration

Compound | % of Muc5AC area (MucilAir™-HF tissues [3]; [14]) [%] | % of Muc5AC area (MucilAir™-HF tissues [3]; [15]) [%] | % of Muc5AC area (MucilAir™-HF tissues [3]; [16]) [%] | % of Muc5AC area (MucilAir™-HF tissues [3]; [17]) [%] | also measured
Cc1cc(O)ccc1Cl [Chlorocresol, 4-Chloro-3-methylphenol] | 6.95 ± 0.30 | 14.47 ± 0.87 | 8.85 ± 1.77 |  | CBF ([1]; 0.005% w/ v for 1-20 min): reversible cilio-inhibitory effects by significantly decreasing CBF; CBF ([1]; 0.1% w/v): instantaneous and irreversible ciliostasis; Tissue functionality (CBF, MCC, mucin secretion) change (in words) (MucilAir™-HF tissues [2]): not able to induce changes in tissue functionality (e.g. reduced CBF)
Lipopolysaccharide from Pseudomonas aeruginosa 10 [LPS] | 4.28 ± 0.76 | 2.87 ± 0.77 | 4.30 ± 0.90 | 1.58 ± 0.40 | Histological changes compared to vehicle and control groups (in words) (EpiAlveolar™ tissues): changes were not observed; MMP-9 supernatant levels and mRNA transcripts [4]: significant increase in MMP-9 supernatant levels and mRNA transcripts; Cytokines/chemokines modulated (in words) (MucilAir™-HF tissues [5]; 30 min/day exposure): did not promote modulation of the different cytokines/chemokines; Cytokines/chemokines modulated (in words) (MucilAir™-HF tissues [5]; 6 h/day exposure): increased levels of proteins involved in the inflammatory response (e.g., IL-6, IL-8, and TNF-α) and degradation of extracellular matrix/fibrosis (e.g., MMP-3 and uPAR); IL-6 and IL-8 protein and mRNA transcripts levels [6]: significant increase of IL-6 and IL-8 protein and mRNA transcripts levels
C[S+]([O-])CCCCN=C=S (stereo not drawn) [Sulforaphane, R,S-Sulforaphane] | 5.04 ± 0.71 | 3.74 ± 0.71 | 9.38 ± 0.80 | 2.55 ± 0.62 | Protection from cigarette smoke extract-induced oxidative damage [7]: protect from cigarette smoke extract-induced oxidative damage; Anti-inflammatory activity [8]: anti-inflammatory activity by suppressing the expression of Toll-like receptors (TLR2 and TLR4)
CN1CCC[C@H]1c1cccnc1 [Nicotine] | 5.94 ± 1.90 | 0.89 ± 0.62 | 3.91 ±0.79 |  | TNF-α, IL-8, IL-6 and MUC5AC supernatant protein and mRNA levels [9]: did not trigger changes in TNF-α, IL-8, IL-6 and MUC5AC supernatant protein and mRNA levels; TEER values (integrity of the epithelial membrane) [10]: biphasic response with a large and significant increase of TEER values at low concentrations followed by a steady decrease at higher concentrations; Cytotoxicity (LDH release) [11]: did not trigger cytotoxicity
O=C(O)c1ccc(/C=C2\SC(=S)N(c3cccc(C(F)(F)F)c3)C2=O)cc1 [CFTRinh-172] | 6.93 ± 0.51 | 7.15 ± 1.06 | 11.01 ± 0.81 |  | TEER values [12]: time-dependent increase in TEER values; GM-CSF, IL-6 and/or IL-8 secretion levels [13]: no changes in granulocyte/macrophage colony-stimulating factor, IL-6 and/or IL-8 secretion levels; Changes in Muc5AC protein expression (in words) (MucilAir™-HF tissues [3]): not able to promote any changes; also recorded: did not induce expected increase in mucin secretion or Muc5AC protein expression
